Among the data in patent US20060063828A1 (priority 2004, published 2006) are IC50 and melting point values, retold here.

The subject of one data set is VCAM-1. The experiment in a line: In Vitro VCAM-1 Assay (ELISA of VCAM-1 on TNF-α stimulated endothelial cells). The settings on record: Endothelial cell; primary human aortic (HAEC) or pulmonary (HPAEC) endothelial cells, TNF-α (1 ng/ml), approximately 16 hours. The data set is classed as cell-based. The method, then:
Cell Culture and compound dosing: Cultured primary human aortic (HAEC) or pulmonary (HPAEC) endothelial cells were obtained from Clonetics, Inc., and were used below passage 9. Cells were seeded in 96 well plates such that they would reach 90-95% confluency by the following day. On the following day the cells were stimulated with TNF-α (1 ng/ml) in the presence or absence of compounds dissolved in DMSO such that the final concentration of DMSO is 0.25% or less. To establish a dose curve for each compound, four concentrations in 2- to 5-fold increments were used. Cells were exposed to TNF-α and compounds for approximately 16 hours. The next day the cells were examined under microscope to score for visual signs of toxicity or cell stress.
Following 16 hr exposure to TNF-α and compound the media was discarded and the cells were washed once with Hanks Balanced Salt Solution (HBSS)/Phosphate buffered saline (PBS) (1:1). Primary antibodies against VCAM-1 (0.25 μg/ml in HBSS/PBS+5% FBS) were added and incubated for 30-60 minutes at 37° C. Cells were washed with HBSS/PBS three times, and secondary antibody Horse Radish Peroxidase (HRP)-conjugated goat anti-mouse IgG (1:500 in HBSS/PBS+5% FBS) were added and incubated for 30 minutes at 37° C. Cells were washed with HBSS/PBS four time and TMB substrate were added and incubated at room temperature in the dark until there was adequate development of blue color. The length of time of incubation was typically 5-15 minutes. 2N sulfuric acid was added to stop the color development and the data was collected by reading the absorbance on a BioRad ELISA plate reader at OD 450 nm. The results are expressed as IC50 values (the concentration (micromolar) of compound required to inhibit 50% of the maximal response of the control sample stimulated by TNF-α only).
A general note: An ELISA detects its analyte on a solid surface through an enzyme-linked reagent.

What is called IC50 is the concentration that gives 50% inhibition. Low values mean greater potency in that assay, high ones weaker potency in that assay. Usually melting point stands for the temperature of the solid-liquid transition. Molecule `C=C(C(=O)c1c(OC)ccc(-c2cccs2)c1OC)c1ccc([N+](=O)[O-])cc1` [Example 41, 1-(2,6-Dimethoxy-3-thien-2-yl-phenyl)-2-(4-nitrophenyl)-propenone] displayed a melting point of 114 to 118 °C. This molecule also gave an IC50 in the data set on VCAM-1 of less than 1000 nM.
Turning to `C=C(C(=O)c1ccc(OC)c(-c2cccs2)c1)c1ccc(C(=O)O)cc1` [Example 15, 4-[1-(4-Methoxy-3-thien-2-yl-benzoyl)-vinyl]-benzoic acid], the melting point lay in the range of 204 to 205 °C. For the same molecule, the IC50 with VCAM-1 was less than 3000 nM.
The like results for `C=C(C(=O)c1ccc(NS(C)(=O)=O)cc1)c1cc(-c2cccs2)ccc1OC` [Example 19, N-{4-[2-(2-Methoxy-5-thien-2-yl-phenyl)-acryloyl]-phenyl}-methane-sulfonamide] were, in that order, 197 to 198 °C and less than 1000 nM.
Consider `C=C(C(=O)c1cc(OC)c(OC)c(-c2cccs2)c1)c1ccc(C(=O)O)cc1` [Example 16, 4-[1-(3,4-Dimethoxy-5-thien-2-yl-benzoyl)-vinyl]-benzoic acid], for which the melting point was in the range of 159 to 160 °C. Besides, the IC50 with VCAM-1 was less than 1000 nM.
The like results for `C=C(C(=O)c1ccc(C(=O)N2CCC(O)CC2)cc1)c1cc(-c2cccs2)ccc1OC` [Example 11, 1-[4-(4-Hydroxy-piperidine-1-carbonyl)-phenyl]-2-(2-methoxy-5-thien-2-yl-phenyl)-propenone] were, in that order, 197 to 199 °C and less than 1000 nM.
The like results for `C=C(C(=O)c1ccc(NC(=O)c2cccn2C)cc1)c1cc(-c2cccs2)ccc1OC` [Example 28, 1-Methyl-1H-pyrrole-2-carboxylic acid {4-[2-(2-methoxy-5-thien-2-yl-phenyl)-acryloyl]-phenyl}-amide] were, in that order, 165 to 168 °C and less than 1000 nM.
The like results for `C=C(C(=O)c1ccc(C(=O)O)cc1)c1cc(-c2cccn2C(=O)OC(C)(C)C)ccc1OC` [Example 3, 2-{3-[1-(4-Carboxy-benzoyl)-vinyl]-4-methoxy-phenyl}-pyrrole-1-carboxylic acid tert-butyl ester] were, in that order, 90 °C (dec.) and less than 3000 nM.
Regarding `C=C(C(=O)c1ccc(Nc2ncccc2C(=O)OCC)cc1)c1cc(-c2cccs2)ccc1OC` [Example 23, 2-{4-[2-(2-Methoxy-5-thien-2-yl-phenyl)-acryloyl]-phenylamino}-nicotinic acid ethyl ester], the melting point was 149 to 151 °C. In addition, the IC50 with VCAM-1 was less than 3000 nM.
The like results for `C=C(C(=O)c1ccc(Nc2cnccn2)cc1)c1cc(-c2cccs2)ccc1OC` [Example 25, 2-(2-Methoxy-5-thien-2-yl-phenyl)-1-[4-(pyrazin-2-ylamino)-phenyl]-propenone] were, in that order, 178 to 182 °C and less than 1000 nM.
The like results for `C=C(C(=O)c1ccc(NS(=O)(=O)c2c(C)noc2C)cc1)c1cc(-c2cccs2)ccc1OC` [Example 26, 3,5-Dimethyl-isoxazole-4-sulfonic acid {4-[2-(2-methoxy-5-thien-2-yl-phenyl)-acryloyl]-phenyl}-amide] were, in that order, 176 to 179 °C and less than 3000 nM.
For `C=C(C(=O)c1c(OC)cccc1OC)c1ccccc1-c1cccs1` [Example 43, 1-(2,6-Dimethoxy-phenyl)-2-(2-thien-2-yl-phenyl)-propenone], in that order: 70 to 73 °C and less than 3000 nM.
As to `C=C(C(=O)c1ccc(Nc2ncccc2C(=O)O)cc1)c1cc(-c2cccs2)ccc1OC` [Example 24, 2-{4-[2-(2-Methoxy-5-thien-2-yl-phenyl)-acryloyl]-phenylamino}-nicotinic acid], the melting point was 234 °C (dec.). In the data set on VCAM-1, this molecule returned an IC50 of less than 1000 nM.
Molecule `C=C(C(=O)c1c(OC)ccc(-c2cccs2)c1OC)c1ccc(S(=O)(=O)N(C)CC(=O)O)cc1` [Example 63, ({4-[1-(2,6-Dimethoxy-3-thien-2-yl-benzoyl)-vinyl]-benzenesulfonyl}-methyl-amino)-acetic acid] showed a melting point of 164 to 166 °C. Also, the 50% inhibitory concentration (IC50) in the data set with VCAM-1 was less than 10000 nM.
In turn, `C=C(C(=O)c1ccc(C(=O)OC)cc1)c1cc(-c2cccs2)ccc1OC` [Example 9, 4-[2-(2-Methoxy-5-thien-2-yl-phenyl)-acryloyl]-benzoic acid methyl ester] registered a melting point of 126 to 128 °C. The molecule further returned an IC50 in the data set with VCAM-1 of less than 1000 nM.
The like results for `C=C(C(=O)c1c(OC)cccc1OC)c1ccc(C(=O)O)cc1-c1cccs1` [Example 36, 4-[1-(2,6-Dimethoxy-benzoyl)-vinyl]-3-thien-2-yl-benzoic acid] were, in that order, 192 to 195 °C and less than 3000 nM.
The like results for `C=C(C(=O)c1ccc(C(F)(F)F)cc1)c1cc(-c2cccs2)ccc1OC` [Example 58, 2-(2-Methoxy-5-thien-2-yl-phenyl)-1-(4-trifluoromethyl-phenyl)-propenone] were, in that order, 131 to 133 °C and less than 3000 nM.
In the case of `C=C(C(=O)c1ccc(C(=O)O)cc1)c1cc(-c2cccs2)ccc1OCC(=O)N1CCOCC1` [Example 60], the melting point was in the range of 206 to 207 °C. This molecule had an IC50 in the data set with VCAM-1 of more than 10000 nM.
The like results for `C=C(C(=O)c1ccc(C(=O)OC)cc1)c1cc(OC)c(OC)c(-c2cccs2)c1` [Example 48, 4-[2-(3,4-Dimethoxy-5-thien-2-yl-phenyl)-acryloyl]-benzoic acid methyl ester] were, in that order, 102 to 103 °C and less than 10000 nM.
`C=C(C(=O)c1cc(-c2cc3ccccc3s2)c(OC)cc1OC)c1ccc(OC)cc1` [Example 46, 1-(5-Benzo[b]thien-2-yl-2,4-dimethoxy-phenyl)-2-(4-methoxy-phenyl)-propenone] gave a melting point of 166 to 168 °C. The same molecule yielded an IC50 in the data set on VCAM-1 of less than 3000 nM.
The molecule `C=C(C(=O)c1ccc(N2CCCC2)cc1)c1cc(-c2cccs2)ccc1OC` [Example 14, 2-(2-Methoxy-5-thien-2-yl-phenyl)-1-(4-pyrrolidin-1-yl-phenyl)-propenone] showed a melting point of 187 to 190 °C. The molecule further returned an IC50 in the data set with VCAM-1 of less than 3000 nM.
For `C=C(C(=O)c1ccc(C(=O)O)cc1)c1cc(-c2ccsc2)ccc1OC` [Example 62, 4-[2-(2-Methoxy-5-thien-3-yl-phenyl)-acryloyl]-benzoic acid], in that order: 192 to 194 °C and less than 1000 nM.
The like results for `C=C(C(=O)c1ccc(NC(=O)C(C)C)cc1)c1cc(-c2cccs2)ccc1OC` [Example 21, N-{4-[2-(2-Methoxy-5-thien-2-yl-phenyl)-acryloyl]-phenyl}-isobutyramide] were, in that order, 155 to 158 °C and less than 1000 nM.
For `C=C(C(=O)c1c(OC)ccc(-c2cccs2)c1OC)c1ccc(OC(C)(C)C(=O)O)cc1` [Example 35, 2-{4-[1-(2,6-Dimethoxy-3-thien-2-yl-benzoyl)-vinyl]-phenoxy}-2-methyl-propionic acid], in that order: 138 °C (dec.) and less than 3000 nM.
Consider `C=C(C(=O)c1ccc(C(=O)NC(CO)(CO)CO)cc1)c1cc(-c2cccs2)ccc1OC` [Example 10, N-(2-Hydroxy-1,1-bis-hydroxymethyl-ethyl)-4-[2-(2-methoxy-5-thien-2-yl-phenyl)-acryloyl]-benzamide], for which the melting point was 144 to 146 °C. This molecule gave an IC50 with VCAM-1 of less than 1000 nM.
